Laboratory results: ChEMBL document CHEMBL1759897, “Discovery of non-peptide, small molecule antagonists of α9α10 nicotinic acetylcholine receptors as novel analgesics for the treatment of neuropathic and tonic inflammatory pain” (Bioorg Med Chem Lett, 2011)
pIC50: −log10 of the molar value. Calls of active or inactive are those of the source. The rule behind the calls is not given here.

How the values were obtained:
[1] = molecular target: Neuronal acetylcholine receptor; alpha9/alpha10 (Homo sapiens) (UniProt Q9UGM1+Q9GZZ6); test: Antagonist activity at alpha9/alpha10 nAChR expressed in Xenopus oocyte assessed as inhibition of ACh-gated current response at 100 nM by voltage clamp electrophysiology assay; assay type: functional; design: scale not given: the % may be the effect or the level left
[2] = molecular target: Neuronal acetylcholine receptor subunit alpha-7 (Homo sapiens, UniProt P36544); test: Antagonist activity at alpha7 nAChR expressed in Xenopus oocyte assessed as inhibition of ACh-gated current by voltage clamp electrophysiology assay; assay type: functional
Rattus norvegicus [3] = species: Rattus norvegicus; test: Analgesic activity in rat inflammatory pain model assessed reduction formalin-induced inflammatory pain; assay type: functional, organism-based
Rattus norvegicus [4] = species: Rattus norvegicus; test: Analgesic activity in rat pain model by tail flick test; assay type: functional, organism-based
Rattus norvegicus [5] = species: Rattus norvegicus; test: Analgesic activity in rat chronic constriction nerve injury model of neuropathic pain assessed as reversal of mechanical hyperalgesia; assay type: functional, organism-based
Rattus norvegicus [6] = test: Analgesic activity in rat chronic constriction nerve injury model of neuropathic pain assessed as reversal of mechanical hyperalgesia measured after repeated dosing for 7 days; assay type: functional, organism-based
[7] = molecular target: Neuronal acetylcholine receptor; alpha9/alpha10 (Homo sapiens, UniProt Q9GZZ6+Q9UGM1); test: Antagonist activity at alpha9/alpha10 nAChR expressed in Xenopus oocyte assessed as inhibition of ACh-gated current by voltage clamp electrophysiology assay; assay type: functional
[8] = molecular target: Neuronal acetylcholine receptor; alpha4/beta2 (Homo sapiens, UniProt P17787+P43681); test: Inhibition of alpha4beta2 nAChR; assay type: protein-complex assay
[9] = molecular target: Neuronal acetylcholine receptor; alpha3/beta4 (Homo sapiens, UniProt P30926+P32297); test: Inhibition of alpha3beta4 nAChR; assay type: protein-complex assay
[10] = Inhibition of muscle nAChR; assay type: tissue-based, Muscle tissue

Chain of Neuronal acetylcholine receptor subunit alpha-7 (P36544 whole entry): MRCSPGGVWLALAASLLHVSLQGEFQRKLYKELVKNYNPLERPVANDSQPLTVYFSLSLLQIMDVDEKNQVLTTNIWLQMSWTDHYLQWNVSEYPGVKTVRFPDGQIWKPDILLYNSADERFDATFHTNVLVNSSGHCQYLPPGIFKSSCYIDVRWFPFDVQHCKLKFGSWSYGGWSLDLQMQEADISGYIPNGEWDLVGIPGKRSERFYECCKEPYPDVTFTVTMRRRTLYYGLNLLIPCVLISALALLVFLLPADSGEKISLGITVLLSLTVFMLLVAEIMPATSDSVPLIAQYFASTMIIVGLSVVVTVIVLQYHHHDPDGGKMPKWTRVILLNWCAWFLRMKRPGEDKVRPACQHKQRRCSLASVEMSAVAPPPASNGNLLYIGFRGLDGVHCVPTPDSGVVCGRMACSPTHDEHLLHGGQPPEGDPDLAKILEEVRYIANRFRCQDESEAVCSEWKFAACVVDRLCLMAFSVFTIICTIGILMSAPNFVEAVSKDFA
Chain of Neuronal acetylcholine receptor; alpha9/alpha10 (Q9UGM1 whole entry): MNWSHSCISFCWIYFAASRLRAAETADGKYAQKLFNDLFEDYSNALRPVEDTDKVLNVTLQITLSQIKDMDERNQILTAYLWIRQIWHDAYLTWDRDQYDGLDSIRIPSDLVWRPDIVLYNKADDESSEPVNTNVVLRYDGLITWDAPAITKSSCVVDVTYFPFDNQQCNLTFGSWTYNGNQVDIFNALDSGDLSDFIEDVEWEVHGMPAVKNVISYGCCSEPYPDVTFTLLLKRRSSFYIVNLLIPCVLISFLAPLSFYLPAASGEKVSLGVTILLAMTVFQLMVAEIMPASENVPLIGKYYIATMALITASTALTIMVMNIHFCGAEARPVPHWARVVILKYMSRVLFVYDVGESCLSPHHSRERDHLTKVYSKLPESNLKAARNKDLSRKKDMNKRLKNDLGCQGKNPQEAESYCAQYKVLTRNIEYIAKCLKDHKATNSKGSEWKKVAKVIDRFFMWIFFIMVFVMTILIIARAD
Chain of Neuronal acetylcholine receptor; alpha9/alpha10 (Q9GZZ6 whole entry): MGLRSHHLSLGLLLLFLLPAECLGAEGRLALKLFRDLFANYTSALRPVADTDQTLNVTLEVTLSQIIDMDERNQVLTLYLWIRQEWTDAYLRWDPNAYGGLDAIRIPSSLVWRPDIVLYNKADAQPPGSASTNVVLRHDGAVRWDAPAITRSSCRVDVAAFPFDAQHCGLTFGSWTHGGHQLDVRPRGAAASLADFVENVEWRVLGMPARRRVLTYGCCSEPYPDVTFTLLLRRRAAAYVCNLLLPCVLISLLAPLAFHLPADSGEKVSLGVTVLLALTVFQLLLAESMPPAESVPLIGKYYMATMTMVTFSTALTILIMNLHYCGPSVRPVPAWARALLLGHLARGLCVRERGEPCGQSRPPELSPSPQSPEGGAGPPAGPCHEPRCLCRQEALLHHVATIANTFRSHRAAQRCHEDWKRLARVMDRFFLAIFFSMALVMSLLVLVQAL
Chain of Neuronal acetylcholine receptor; alpha3/beta4 (P30926 whole entry): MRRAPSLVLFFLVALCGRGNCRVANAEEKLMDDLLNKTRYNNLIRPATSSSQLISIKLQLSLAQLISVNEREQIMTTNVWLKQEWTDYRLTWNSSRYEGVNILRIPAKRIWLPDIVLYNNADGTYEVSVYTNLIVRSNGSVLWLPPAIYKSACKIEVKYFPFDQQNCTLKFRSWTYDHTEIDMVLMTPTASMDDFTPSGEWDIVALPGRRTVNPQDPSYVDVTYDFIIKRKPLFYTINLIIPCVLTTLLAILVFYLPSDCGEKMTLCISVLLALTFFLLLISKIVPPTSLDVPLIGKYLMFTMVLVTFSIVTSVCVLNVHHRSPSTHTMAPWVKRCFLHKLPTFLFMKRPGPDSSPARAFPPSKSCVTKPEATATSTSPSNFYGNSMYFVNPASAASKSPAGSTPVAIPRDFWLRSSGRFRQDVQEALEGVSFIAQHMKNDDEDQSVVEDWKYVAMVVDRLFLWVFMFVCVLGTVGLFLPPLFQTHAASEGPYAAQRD
Chain of Neuronal acetylcholine receptor; alpha3/beta4 (P32297 whole entry): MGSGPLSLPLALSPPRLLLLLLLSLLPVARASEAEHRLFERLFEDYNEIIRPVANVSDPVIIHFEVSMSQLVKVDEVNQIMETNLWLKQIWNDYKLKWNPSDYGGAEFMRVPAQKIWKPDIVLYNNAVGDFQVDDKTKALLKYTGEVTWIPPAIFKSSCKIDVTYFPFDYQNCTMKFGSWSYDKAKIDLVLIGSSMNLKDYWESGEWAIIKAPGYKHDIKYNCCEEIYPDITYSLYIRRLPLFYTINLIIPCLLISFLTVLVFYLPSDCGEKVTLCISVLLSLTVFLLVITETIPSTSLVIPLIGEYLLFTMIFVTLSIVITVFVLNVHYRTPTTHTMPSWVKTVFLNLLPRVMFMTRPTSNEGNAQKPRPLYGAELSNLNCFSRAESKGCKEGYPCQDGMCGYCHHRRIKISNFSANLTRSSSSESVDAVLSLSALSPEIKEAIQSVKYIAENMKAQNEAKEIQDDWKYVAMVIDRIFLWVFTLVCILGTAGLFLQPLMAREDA
Chain of Neuronal acetylcholine receptor; alpha4/beta2 (P17787 whole entry): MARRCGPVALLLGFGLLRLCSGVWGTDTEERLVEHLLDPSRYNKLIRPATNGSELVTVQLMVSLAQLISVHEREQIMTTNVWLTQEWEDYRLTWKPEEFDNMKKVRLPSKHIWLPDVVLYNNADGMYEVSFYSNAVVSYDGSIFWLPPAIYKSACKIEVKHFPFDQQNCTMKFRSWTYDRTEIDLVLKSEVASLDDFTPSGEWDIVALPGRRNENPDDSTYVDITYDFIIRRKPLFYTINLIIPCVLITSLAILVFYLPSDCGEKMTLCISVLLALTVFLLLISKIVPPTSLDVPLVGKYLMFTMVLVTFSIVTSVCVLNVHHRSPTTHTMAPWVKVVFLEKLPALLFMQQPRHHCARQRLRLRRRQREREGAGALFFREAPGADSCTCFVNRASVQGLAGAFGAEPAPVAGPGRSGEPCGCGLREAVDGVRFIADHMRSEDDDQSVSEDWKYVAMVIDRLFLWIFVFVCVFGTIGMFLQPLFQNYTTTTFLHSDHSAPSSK
Chain of Neuronal acetylcholine receptor; alpha4/beta2 (P43681 whole entry): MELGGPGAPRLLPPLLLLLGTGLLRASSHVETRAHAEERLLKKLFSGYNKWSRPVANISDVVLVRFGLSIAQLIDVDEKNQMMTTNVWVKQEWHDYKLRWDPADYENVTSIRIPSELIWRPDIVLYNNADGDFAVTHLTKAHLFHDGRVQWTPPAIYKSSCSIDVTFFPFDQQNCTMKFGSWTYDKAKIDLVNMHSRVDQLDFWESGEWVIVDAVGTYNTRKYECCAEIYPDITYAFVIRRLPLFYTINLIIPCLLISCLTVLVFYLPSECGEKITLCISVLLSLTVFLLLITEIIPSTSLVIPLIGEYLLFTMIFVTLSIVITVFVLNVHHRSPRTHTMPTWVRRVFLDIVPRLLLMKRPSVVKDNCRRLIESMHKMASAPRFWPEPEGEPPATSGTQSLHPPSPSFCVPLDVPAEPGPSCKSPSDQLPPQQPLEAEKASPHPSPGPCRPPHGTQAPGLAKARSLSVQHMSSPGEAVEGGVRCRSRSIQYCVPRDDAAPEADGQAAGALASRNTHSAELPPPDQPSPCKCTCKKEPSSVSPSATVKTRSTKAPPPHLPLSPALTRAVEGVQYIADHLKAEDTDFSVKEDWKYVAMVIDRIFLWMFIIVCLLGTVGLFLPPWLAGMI

Compound	Activity [1]	further results
Cc1cc(C)c[n+](CCCCCc2ccccc2CCCCC[n+]2cc(C)cc(C)c2)c1	124%	–
Cc1cc(C)c[n+](CCCC#Cc2ccccc2C#CCCC[n+]2cc(C)cc(C)c2)c1	67.6%	–
C(#Cc1cccc(C#CCCC[n+]2cccc3ccccc32)c1)CCC[n+]1cccc2ccccc21	41.6%	–
CCCCc1ccc[n+](CCCC#Cc2cc(C#CCCC[n+]3cccc(CCCC)c3)cc(C#CCCC[n+]3cccc(CCCC)c3)c2)c1	36.1%	–
Cc1cc[n+](CC#Cc2ccc(-c3ccc(C#CC[n+]4ccc(C)c(C)c4)cc3)cc2)cc1C	8.1%	pIC50 [2]: 5.92; Activity (Rattus norvegicus [3]): Active; Activity (Rattus norvegicus [4]): inactive; Activity (Rattus norvegicus [5]): Dose-dependent effect; Activity (Rattus norvegicus [6]): inactive; pIC50 [7]: 7.80
Cc1cc(C)c[n+](CCCc2ccc(-c3ccc(CCC[n+]4cc(C)cc(C)c4)cc3)cc2)c1	114%	–
Cc1cc[n+](CCCCc2ccc(CCCC[n+]3ccc(C)c(C)c3)cc2)cc1C	36.7%	–
Cc1cc[n+](CCCC#Cc2cc(C#CCCC[n+]3ccc(C)c(C)c3)cc(C#CCCC[n+]3ccc(C)c(C)c3)c2)cc1C	61.1%	–
Cc1cc(C)c[n+](CCC#Cc2ccc(C#CCC[n+]3cc(C)cc(C)c3)cc2)c1	76.2%	–
C(#Cc1cc(C#CCCC[n+]2ccc3ccccc3c2)c(C#CCCC[n+]2ccc3ccccc3c2)cc1C#CCCC[n+]1ccc2ccccc2c1)CCC[n+]1ccc2ccccc2c1	11.6%	–
c1ccc(-c2ccc[n+](CCCCCc3cc(CCCCC[n+]4cccc(-c5ccccc5)c4)cc(CCCCC[n+]4cccc(-c5ccccc5)c4)c3)c2)cc1	3.84%	–
C(#Cc1cccc(C#CCCC[n+]2cccc(-c3ccccc3)c2)c1)CCC[n+]1cccc(-c2ccccc2)c1	23.2%	–
Cc1cc[n+](CCCCCc2cc(CCCCC[n+]3ccc(C)c(C)c3)cc(CCCCC[n+]3ccc(C)c(C)c3)c2)cc1C	62.7%	–
Cc1cc[n+](CCCC#Cc2cc(C#CCCC[n+]3ccc(C)c(C)c3)c(C#CCCC[n+]3ccc(C)c(C)c3)cc2C#CCCC[n+]2ccc(C)c(C)c2)cc1C	47.4%	–
Cc1cc(C)c[n+](CCCC#Cc2cc(C#CCCC[n+]3cc(C)cc(C)c3)cc(C#CCCC[n+]3cc(C)cc(C)c3)c2)c1	66%	–
C(#Cc1cc(C#CCCC[n+]2cccc(-c3ccccc3)c2)c(C#CCCC[n+]2cccc(-c3ccccc3)c2)cc1C#CCCC[n+]1cccc(-c2ccccc2)c1)CCC[n+]1cccc(-c2ccccc2)c1	0.3%	pIC50 [8]: 5.42; pIC50 [9]: 6.10; pIC50 [10]: 6.92; Activity (Rattus norvegicus [3]): Active; Activity (Rattus norvegicus [4]): inactive; Activity (Rattus norvegicus [5]): Dose-dependent effect; Activity (Rattus norvegicus [6]): inactive
C(#Cc1cc(C#CCCC[n+]2cccc(-c3ccccc3)c2)cc(C#CCCC[n+]2cccc(-c3ccccc3)c2)c1)CCC[n+]1cccc(-c2ccccc2)c1	5.5%	–
Cc1cc(C)c[n+](CCCC#Cc2cc(C#CCCC[n+]3cc(C)cc(C)c3)c(C#CCCC[n+]3cc(C)cc(C)c3)cc2C#CCCC[n+]2cc(C)cc(C)c2)c1	0.3%	–
C(#Cc1cccc(C#CCCC[n+]2ccc3ccccc3c2)c1)CCC[n+]1ccc2ccccc2c1	39.7%	–
Cc1cc[n+](CCCCCc2cccc(CCCCC[n+]3ccc(C)c(C)c3)c2)cc1C	62.7%	–

Compound	Activity [1]	further results
c1ccc2c[n+](CCCCCc3cc(CCCCC[n+]4ccc5ccccc5c4)cc(CCCCC[n+]4ccc5ccccc5c4)c3)ccc2c1	6.9%	–
c1cc(CCCCC[n+]2ccc3ccccc3c2)cc(CCCCC[n+]2ccc3ccccc3c2)c1	37.5%	–
Cc1cc[n+](CCC#Cc2ccc(C#CCC[n+]3ccc(C)c(C)c3)cc2)cc1C	10.6%	–
c1ccc(CCCCC[n+]2cccc3ccccc32)c(CCCCC[n+]2cccc3ccccc32)c1	10.9%	–
C(#Cc1ccccc1C#CCCC[n+]1ccc2ccccc2c1)CCC[n+]1ccc2ccccc2c1	28%	–
c1ccc2c(c1)ccc[n+]2CCCCCc1cc(CCCCC[n+]2cccc3ccccc32)cc(CCCCC[n+]2cccc3ccccc32)c1	15.9%	Activity (Rattus norvegicus [3]): Active; Activity (Rattus norvegicus [4]): inactive; Activity (Rattus norvegicus [5]): Dose-dependent effect; Activity (Rattus norvegicus [6]): inactive
C(#Cc1cc(C#CCCC[n+]2cccc3ccccc32)cc(C#CCCC[n+]2cccc3ccccc32)c1)CCC[n+]1cccc2ccccc21	10.5%	–
Cc1cc[n+](CCCC#Cc2cccc(C#CCCC[n+]3ccc(C)c(C)c3)c2)cc1C	76.9%	–
Cc1cc(C)c[n+](CCCCCc2cc(CCCCC[n+]3cc(C)cc(C)c3)cc(CCCCC[n+]3cc(C)cc(C)c3)c2)c1	79.8%	–
Cc1cc[n+](CCCC#Cc2ccccc2C#CCCC[n+]2ccc(C)c(C)c2)cc1C	31.3%	–
Cc1cc[n+](CCCCCc2ccccc2CCCCC[n+]2ccc(C)c(C)c2)cc1C	72%	–
c1cc(CCCCC[n+]2cccc3ccccc32)cc(CCCCC[n+]2cccc3ccccc32)c1	42.6%	–
CCCCc1ccc[n+](CCCCCc2cc(CCCCC[n+]3cccc(CCCC)c3)cc(CCCCC[n+]3cccc(CCCC)c3)c2)c1	16.1%	–
c1ccc2c[n+](CCCCCc3cc(CCCCC[n+]4ccc5ccccc5c4)c(CCCCC[n+]4ccc5ccccc5c4)cc3CCCCC[n+]3ccc4ccccc4c3)ccc2c1	17.9%	–
Cc1cc(C)c[n+](CCCCc2ccc(CCCC[n+]3cc(C)cc(C)c3)cc2)c1	97.1%	–
c1ccc(CCCCC[n+]2ccc3ccccc3c2)c(CCCCC[n+]2ccc3ccccc3c2)c1	31.1%	–
Cc1cc[n+](CCCCCc2cc(CCCCC[n+]3ccc(C)c(C)c3)c(CCCCC[n+]3ccc(C)c(C)c3)cc2CCCCC[n+]2ccc(C)c(C)c2)cc1C	11%	–
Cc1cc(C)c[n+](CCCCCc2cc(CCCCC[n+]3cc(C)cc(C)c3)c(CCCCC[n+]3cc(C)cc(C)c3)cc2CCCCC[n+]2cc(C)cc(C)c2)c1	0.6%	–
Cc1cc[n+](CCCc2ccc(-c3ccc(CCC[n+]4ccc(C)c(C)c4)cc3)cc2)cc1C	89.3%	–
c1ccc(-c2ccc[n+](CCCCCc3cc(CCCCC[n+]4cccc(-c5ccccc5)c4)c(CCCCC[n+]4cccc(-c5ccccc5)c4)cc3CCCCC[n+]3cccc(-c4ccccc4)c3)c2)cc1	6.5%	pIC50 [2]: 7.00; pIC50 [7]: 8.27
